Measurements as given in patent publication US20260167619A2, “INDOLINE COMPOUNDS AND DERIVATIVES AS EGFR INHIBITORS” (BeOne Medicines I GmbH, priority 2020, published 2026).

Experiments:
[1] = biological target: BaF3-LR_TM_CS cells (Homo sapiens, UniProt P00533, T790M/C797S/L858R, cells depend on it); experiment: Cell antiproliferation assay (CellTiter-Glo), BaF3-LR_TM_CS; type: cell-based; conditions: 48 h treatment, read-out: BaF3-LR_TM_CS IC50
Summary of the method: (§1)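 Cells exposed 48 h to 8 doses from 5-fold serial dilution (500× DMSO stocks from 5 mM), final 0.2% DMSO. Viability by CellTiter-Glo luminescence; IC50 from four-parameter fit of percent inhibition versus concentration.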

[2] = biological target: EGFR(Dell9_T790M_C797S) (aa 669-1210, in house) (Homo sapiens, UniProt P00533, T790M/C797S, form not given); experiment: Biochemical EGFR inhibition assay (TR-FRET), Del19/T790M/C797S mutant; conditions: ATP at Km, 15 min pre-incubation, 60 min reaction; read-out: Del_TM_CS (Km ATP) IC50
Summary of the method: (§2)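 Biotin-poly GT phosphorylation detected with Eu-cryptate anti-phosphotyrosine (PT66) and XL665-streptavidin after EDTA/KF stop, 665/620 nm ratio. Enzyme and compound preincubated 15 min, then ATP at Km added for 60 min at room temperature. Four-parameter logistic fit gives IC50.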

[3] = biological target: BaF3-Del_TM_CS cells (Homo sapiens, UniProt P00533, T790M/C797S, cells depend on it, form not given); experiment: Cell antiproliferation assay (CellTiter-Glo), BaF3-Del_TM_CS; type: cell-based; conditions: 48 h treatment, read-out: BaF3-Del_TM_CS IC50
BaF3-Del_TM_CS cells, sequence (P00533 with tags, fused parts or gaps DEL746-750/T790M/C797S, form open): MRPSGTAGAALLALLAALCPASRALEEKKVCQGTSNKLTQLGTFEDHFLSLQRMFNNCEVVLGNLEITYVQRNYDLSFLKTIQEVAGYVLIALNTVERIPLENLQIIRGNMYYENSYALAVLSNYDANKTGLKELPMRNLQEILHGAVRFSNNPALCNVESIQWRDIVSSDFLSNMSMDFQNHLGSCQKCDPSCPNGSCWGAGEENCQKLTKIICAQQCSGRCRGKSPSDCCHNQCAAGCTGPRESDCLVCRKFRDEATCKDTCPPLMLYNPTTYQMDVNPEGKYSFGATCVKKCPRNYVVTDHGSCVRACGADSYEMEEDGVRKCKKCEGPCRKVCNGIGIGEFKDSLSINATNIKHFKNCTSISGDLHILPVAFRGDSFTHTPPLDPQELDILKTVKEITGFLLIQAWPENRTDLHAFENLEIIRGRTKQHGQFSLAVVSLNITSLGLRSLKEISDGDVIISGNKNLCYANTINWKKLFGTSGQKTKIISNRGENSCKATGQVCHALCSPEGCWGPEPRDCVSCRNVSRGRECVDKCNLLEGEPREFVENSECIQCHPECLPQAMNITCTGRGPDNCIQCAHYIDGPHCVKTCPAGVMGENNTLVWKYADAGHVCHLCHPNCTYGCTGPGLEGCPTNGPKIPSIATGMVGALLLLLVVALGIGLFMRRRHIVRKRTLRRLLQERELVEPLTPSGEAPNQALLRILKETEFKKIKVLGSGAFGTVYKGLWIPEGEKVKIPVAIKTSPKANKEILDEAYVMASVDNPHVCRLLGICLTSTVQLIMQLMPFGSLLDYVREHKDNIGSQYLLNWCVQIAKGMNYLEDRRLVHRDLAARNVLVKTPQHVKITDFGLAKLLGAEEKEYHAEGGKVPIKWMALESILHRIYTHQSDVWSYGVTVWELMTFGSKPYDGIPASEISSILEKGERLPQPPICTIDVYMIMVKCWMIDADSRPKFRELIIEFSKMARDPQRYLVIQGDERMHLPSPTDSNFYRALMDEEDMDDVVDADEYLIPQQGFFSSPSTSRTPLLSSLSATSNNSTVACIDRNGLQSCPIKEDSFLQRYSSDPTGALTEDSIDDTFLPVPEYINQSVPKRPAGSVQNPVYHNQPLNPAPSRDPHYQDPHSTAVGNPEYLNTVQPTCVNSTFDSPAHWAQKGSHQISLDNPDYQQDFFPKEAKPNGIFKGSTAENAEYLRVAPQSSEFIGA
Summary of the method: as §1

[4] = biological target: T1, EGFR(L858R_T790M_C797S) (aa695-end, Invitrogen) (Homo sapiens, UniProt P00533, C797S/L858R/T790M); experiment: Biochemical EGFR inhibition assay (TR-FRET), L858R/T790M/C797S mutant; conditions: ATP at Km, 15 min pre-incubation, 60 min reaction; read-out: LR_TM_CS (Km ATP) IC50
T1 construct: purchased Invitrogen
T1 sequence (P00533 695-1210 T790M/C797S/L858R): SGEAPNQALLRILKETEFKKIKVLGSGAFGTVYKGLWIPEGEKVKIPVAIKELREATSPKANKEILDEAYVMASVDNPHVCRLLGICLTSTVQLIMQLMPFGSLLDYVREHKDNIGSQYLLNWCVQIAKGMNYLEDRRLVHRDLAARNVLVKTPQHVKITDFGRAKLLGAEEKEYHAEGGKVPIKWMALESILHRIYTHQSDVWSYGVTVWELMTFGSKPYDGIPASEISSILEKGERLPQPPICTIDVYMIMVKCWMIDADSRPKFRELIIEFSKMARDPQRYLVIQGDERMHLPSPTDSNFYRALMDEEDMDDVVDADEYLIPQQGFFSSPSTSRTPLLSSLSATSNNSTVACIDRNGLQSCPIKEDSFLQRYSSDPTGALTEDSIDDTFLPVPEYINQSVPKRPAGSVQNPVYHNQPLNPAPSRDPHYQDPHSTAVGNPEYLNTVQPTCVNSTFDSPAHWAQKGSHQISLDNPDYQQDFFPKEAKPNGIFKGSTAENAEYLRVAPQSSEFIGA
Summary of the method: as §2

[5] = biological target: BaF3-WT cells (Homo sapiens, UniProt P00533); experiment: Cell antiproliferation assay (CellTiter-Glo), BaF3-WT; type: cell-based; conditions: 48 h treatment, read-out: BaF3-WT IC50
BaF3-WT cells, sequence (P00533 whole entry, change not shown): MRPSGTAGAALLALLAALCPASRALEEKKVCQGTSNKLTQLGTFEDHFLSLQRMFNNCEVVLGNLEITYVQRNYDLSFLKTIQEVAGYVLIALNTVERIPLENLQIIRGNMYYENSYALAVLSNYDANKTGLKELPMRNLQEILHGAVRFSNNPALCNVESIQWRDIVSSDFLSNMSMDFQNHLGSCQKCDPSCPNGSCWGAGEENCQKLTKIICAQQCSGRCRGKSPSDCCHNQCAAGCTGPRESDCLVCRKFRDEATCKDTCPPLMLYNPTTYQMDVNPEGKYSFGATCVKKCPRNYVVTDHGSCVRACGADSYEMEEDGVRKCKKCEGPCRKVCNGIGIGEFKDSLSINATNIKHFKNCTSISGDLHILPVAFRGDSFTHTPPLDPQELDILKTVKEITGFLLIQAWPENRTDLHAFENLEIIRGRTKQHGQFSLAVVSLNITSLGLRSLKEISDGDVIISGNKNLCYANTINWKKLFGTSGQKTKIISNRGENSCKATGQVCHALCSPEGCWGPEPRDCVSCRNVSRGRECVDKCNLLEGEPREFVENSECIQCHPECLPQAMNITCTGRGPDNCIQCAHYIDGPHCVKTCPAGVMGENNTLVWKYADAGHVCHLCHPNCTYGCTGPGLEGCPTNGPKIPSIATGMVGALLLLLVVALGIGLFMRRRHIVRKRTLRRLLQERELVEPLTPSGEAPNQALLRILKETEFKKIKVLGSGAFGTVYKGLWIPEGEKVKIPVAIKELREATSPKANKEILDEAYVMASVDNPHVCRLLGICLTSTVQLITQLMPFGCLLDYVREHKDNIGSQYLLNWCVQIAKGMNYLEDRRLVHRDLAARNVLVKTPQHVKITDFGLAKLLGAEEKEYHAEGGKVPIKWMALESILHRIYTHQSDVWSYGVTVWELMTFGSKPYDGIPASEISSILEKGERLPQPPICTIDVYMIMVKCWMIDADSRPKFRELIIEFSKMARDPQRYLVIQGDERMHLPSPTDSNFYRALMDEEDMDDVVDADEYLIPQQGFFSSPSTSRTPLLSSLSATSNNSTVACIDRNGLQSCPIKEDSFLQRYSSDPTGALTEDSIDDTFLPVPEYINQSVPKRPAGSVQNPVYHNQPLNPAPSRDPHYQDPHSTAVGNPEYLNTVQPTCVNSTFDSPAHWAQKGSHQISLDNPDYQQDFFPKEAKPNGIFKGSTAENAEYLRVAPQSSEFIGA
Summary of the method: as §1

[6] = biological target: T2, EGFR (aa668-1210, Invitrogen) (Homo sapiens, UniProt P00533); experiment: Biochemical EGFR inhibition assay (TR-FRET), wild-type EGFR; conditions: ATP at Km, 15 min pre-incubation, 60 min reaction; read-out: WT (Km ATP) IC50
T2 construct: EGFR (aa668-1210, Invitrogen); purchased Invitrogen
T2 sequence (P00533 668-1210): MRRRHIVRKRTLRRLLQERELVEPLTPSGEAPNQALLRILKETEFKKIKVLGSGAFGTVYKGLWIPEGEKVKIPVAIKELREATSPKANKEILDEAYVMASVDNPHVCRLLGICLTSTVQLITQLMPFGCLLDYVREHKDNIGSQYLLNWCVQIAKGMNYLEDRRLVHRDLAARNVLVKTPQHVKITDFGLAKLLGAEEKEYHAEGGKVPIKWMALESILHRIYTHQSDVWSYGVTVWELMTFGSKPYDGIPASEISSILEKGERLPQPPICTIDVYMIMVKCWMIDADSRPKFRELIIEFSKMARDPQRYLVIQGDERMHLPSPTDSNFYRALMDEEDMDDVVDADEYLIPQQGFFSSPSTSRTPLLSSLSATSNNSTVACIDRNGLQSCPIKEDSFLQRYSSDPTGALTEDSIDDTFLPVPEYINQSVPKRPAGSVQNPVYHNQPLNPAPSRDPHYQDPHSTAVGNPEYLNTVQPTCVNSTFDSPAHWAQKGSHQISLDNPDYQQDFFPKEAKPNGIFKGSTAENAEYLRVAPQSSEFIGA
Summary of the method: as §2

BaF3-LR_TM_CS cells, sequence (P00533 whole entry T790M/C797S/L858R): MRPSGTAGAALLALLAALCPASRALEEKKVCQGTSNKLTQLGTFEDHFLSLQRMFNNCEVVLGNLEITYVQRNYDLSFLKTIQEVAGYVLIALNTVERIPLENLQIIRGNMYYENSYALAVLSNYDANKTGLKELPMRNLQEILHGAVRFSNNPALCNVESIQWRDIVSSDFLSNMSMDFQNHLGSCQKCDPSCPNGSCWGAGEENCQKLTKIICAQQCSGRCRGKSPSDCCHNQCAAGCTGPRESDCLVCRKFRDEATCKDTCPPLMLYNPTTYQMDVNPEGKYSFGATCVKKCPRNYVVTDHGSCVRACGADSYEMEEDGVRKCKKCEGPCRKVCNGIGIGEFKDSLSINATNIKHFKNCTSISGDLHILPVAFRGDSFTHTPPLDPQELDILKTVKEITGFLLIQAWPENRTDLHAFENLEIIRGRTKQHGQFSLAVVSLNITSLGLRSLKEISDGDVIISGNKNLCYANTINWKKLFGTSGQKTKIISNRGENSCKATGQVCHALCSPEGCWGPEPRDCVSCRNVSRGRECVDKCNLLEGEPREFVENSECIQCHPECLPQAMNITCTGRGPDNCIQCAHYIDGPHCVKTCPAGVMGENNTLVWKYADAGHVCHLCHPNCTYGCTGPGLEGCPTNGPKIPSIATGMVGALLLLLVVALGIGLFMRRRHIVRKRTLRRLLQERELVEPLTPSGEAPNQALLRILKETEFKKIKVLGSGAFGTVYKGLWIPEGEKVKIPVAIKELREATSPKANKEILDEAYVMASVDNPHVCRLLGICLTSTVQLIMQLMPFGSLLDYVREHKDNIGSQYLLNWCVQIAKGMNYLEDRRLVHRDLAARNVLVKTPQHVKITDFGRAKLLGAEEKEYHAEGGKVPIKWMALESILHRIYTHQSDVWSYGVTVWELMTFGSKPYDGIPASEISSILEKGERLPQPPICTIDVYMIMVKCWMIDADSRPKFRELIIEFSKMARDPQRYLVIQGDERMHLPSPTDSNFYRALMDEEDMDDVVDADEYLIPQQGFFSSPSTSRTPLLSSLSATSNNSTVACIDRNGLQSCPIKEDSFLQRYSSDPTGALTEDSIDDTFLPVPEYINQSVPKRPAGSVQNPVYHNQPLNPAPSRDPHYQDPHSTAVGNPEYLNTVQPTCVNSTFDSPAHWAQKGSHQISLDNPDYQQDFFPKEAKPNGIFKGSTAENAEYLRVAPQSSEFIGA

Compound | GI50 [1] [nM] | IC50 [2] [nM] | GI50 [3] [nM] | IC50 [4] [nM] | GI50 [5] [nM] | IC50 [6] [nM]
COc1cc(N2CCC(N3CCN(C)CC3)CC2)ccc1Nc1nc(Nc2cccc3c2N(S(C)(=O)=O)CC3)c2cc[nH]c2n1 [Example 90, N^2-(2-methoxy-4-(4-(4-methylpiperazin-1-yl)piperidin-1-yl)phenyl)-N^4-(1-(methylsulfonyl)indolin-7-yl)-7H-pyrrolo[2,3-d]pyrimidine-2,4-diamine] | 191 | 1.5 | 87.5 | 1.04 | 2560 | 44
COc1cc(N2CCC(N3CCN(C)CC3)CC2)ccc1Nc1nc(Nc2cccc3c2N(S(C)(=O)=O)CC3)c2[nH]ccc2n1 [Example 71, N^2-(2-methoxy-4-(4-(4-methylpiperazin-1-yl)piperidin-1-yl)phenyl)-N^4-(1-(methylsulfonyl)indolin-7-yl)-5H-pyrrolo[3,2-d]pyrimidine-2,4-diamine] | 1470 | 133 | 920 | 143 | 2210 | 623
CN1CCN(C2CCN(c3ccc(Nc4ncc(Cl)c(Nc5cccc6c5N(S(C)(=O)=O)CC6)n4)c4c3CCO4)CC2)CC1 [Example 49, 5-chloro-N^2-(4-(4-(4-methylpiperazin-1-yl)piperidin-1-yl)-2,3-dihydrobenzofuran-7-yl)-N^4-(1-(methylsulfonyl)indolin-7-yl)pyrimidine-2,4-diamine] | 79.3 | 0.45 | 19.3 | 0.95 | 1510 | 3.8
CN1CCN(c2ccc(Nc3nc(Nc4cccc5c4N(S(C)(=O)=O)CC5)c4cc[nH]c4n3)cc2F)CC1 [Example 84, N^2-(3-fluoro-4-(4-methylpiperazin-1-yl)phenyl)-N^4-(1-(methylsulfonyl)indolin-7-yl)-7H-pyrrolo[2,3-d]pyrimidine-2,4-diamine] | 78 | 1.6 | 10.7 | 1.5 | 335 | 150
COc1cc(N2CCC(N3CCN(C)CC3)CC2)c(Cl)cc1Nc1nc(Nc2cccc3c2N(S(C)(=O)=O)CC3)c2cc[nH]c2n1 [Example 95, N^2-(5-chloro-2-methoxy-4-(4-(4-methylpiperazin-1-yl)piperidin-1-yl)phenyl)-N^4-(1-(methylsulfonyl)indolin-7-yl)-7H-pyrrolo[2,3-d]pyrimidine-2,4-diamine] | 83.8 | 1.4 | 9.58 | 0.79 | 1960 | 28
CNS(=O)(=O)N1CCc2cccc(Nc3nc(Nc4ccc(N5CCC(N6CCN(C)CC6)CC5)cc4OC)ncc3Cl)c21 [Example 14, 7-((5-chloro-2-((2-methoxy-4-(4-(4-methylpiperazin-1-yl)piperidin-1-yl)phenyl)amino)pyrimidin-4-yl)amino)-N-methylindoline-1-sulfonamide] | 14.3 | 0.59 | 8.76 | 0.24 | 193 | 1.4
COc1cc(N2CCC(N3CCN(C)CC3)CC2)ccc1Nc1ncc(C#N)c(Nc2cccc3c2N(S(C)(=O)=O)CC3)n1 [Example 33, 2-((2-methoxy-4-(4-(4-methylpiperazin-1-yl)piperidin-1-yl)phenyl)amino)-4-((1-(methylsulfonyl)indolin-7-yl)amino)pyrimidine-5-carbonitrile] | 225 | 1 | 68.5 | 1.3 | 328 | 1.3
COc1cc(N2CCC(N3CCN(C)CC3)CC2)c(C)cc1Nc1ncc(Br)c(Nc2cccc3c2N(S(C)(=O)=O)CC3)n1 [Example 40, 5-bromo-N^2-(2-methoxy-5-methyl-4-(4-(4-methylpiperazin-1-yl)piperidin-1-yl)phenyl)-N^4-(1-(methylsulfonyl)indolin-7-yl)pyrimidine-2,4-diamine] | 4.91 | 0.36 | 1.56 | 0.21 | 230 | 0.78
CCN1CCN(C2CCN(c3ccc(Nc4nc(Nc5cccc6c5N(S(C)(=O)=O)CC6)c5cc[nH]c5n4)cc3F)CC2)CC1 [Example 77, N^2-(4-(4-(4-ethylpiperazin-1-yl)piperidin-1-yl)-3-fluorophenyl)-N^4-(1-(methylsulfonyl)indolin-7-yl)-7H-pyrrolo[2,3-d]pyrimidine-2,4-diamine] | 62 | 0.33 | 8.3 | 0.29 | 388 | 18
CN1CCN(C2CCN(c3ccc(Nc4ncc(Br)c(Nc5cccc6c5N(S(C)(=O)=O)CC6)n4)c4c3CCO4)CC2)CC1 [Example 50, 5-bromo-N^2-(4-(4-(4-methylpiperazin-1-yl)piperidin-1-yl)-2,3-dihydrobenzofuran-7-yl)-N^4-(1-(methylsulfonyl)indolin-7-yl)pyrimidine-2,4-diamine] | 176 | 0.63 | 19 | 1 | 2730 | 14
COc1cc(N2CCC3(CC2)CN(C)C3)c(C)cc1Nc1nc(Nc2cccc3c2N(S(C)(=O)=O)CC3)c2cc[nH]c2n1 [Example 100, N^2-(2-methoxy-5-methyl-4-(2-methyl-2,7-diazaspiro[3.5]nonan-7-yl)phenyl)-N^4-(1-(methylsulfonyl)indolin-7-yl)-7H-pyrrolo[2,3-d]pyrimidine-2,4-diamine] | 116 | 1 | 39.9 | 0.92 | 1590 | 49
COc1cc(C2CCN(CCO)CC2)c(C)cc1Nc1nc(Nc2cccc3c2N(S(C)(=O)=O)CC3)c2cc[nH]c2n1 [Example 108, 2-(4-(5-methoxy-2-methyl-4-((4-((1-(methylsulfonyl)indolin-7-yl)amino)-7H-pyrrolo[2,3-d]pyrimidin-2-yl)amino)phenyl)piperidin-1-yl)ethan-1-ol] | 464 | 2.2 | 181 | 1.9 | 2140 | 104
CN1CCN(C2CCN(c3ccc(Nc4nc(Nc5cccc6c5N(S(C)(=O)=O)CC6)c5cc[nH]c5n4)c4c3CCO4)CC2)CC1 [Example 125, N^2-(4-(4-(4-methylpiperazin-1-yl)piperidin-1-yl)-2,3-dihydrobenzofuran-7-yl)-N^4-(1-(methylsulfonyl)indolin-7-yl)-7H-pyrrolo[2,3-d]pyrimidine-2,4-diamine] | 61.3 | 1.6 | 38.3 | 1.2 | 394 | 106
CCN1CCN(C2CCN(c3ccc(Nc4nc(Nc5ccc(F)c6c5N(S(C)(=O)=O)CC65CCC5)c5cc[nH]c5n4)cc3F)CC2)CC1 [Example 83, N^2-(4-(4-(4-ethylpiperazin-1-yl)piperidin-1-yl)-3-fluorophenyl)-N^4-(4′-fluoro-1′-(methylsulfonyl)spiro[cyclobutane-1,3′-indolin]-7′-yl)-7H-pyrrolo[2,3-d]pyrimidine-2,4-diamine] | 1040 | 37 | 707 | 42 | 1860 | 7290
COc1cc(N2CCC(N3CCN(C)CC3)CC2)ccc1Nc1ncc(Cl)c(Nc2ccc(Br)c3c2N(S(C)(=O)=O)CC3)n1 [Example 2, N^4-(4-bromo-1-(methylsulfonyl)indolin-7-yl)-5-chloro-N^2-(2-methoxy-4-(4-(4-methylpiperazin-1-yl)piperidin-1-yl)phenyl)pyrimidine-2,4-diamine] | 66.1 | 0.36 | 14.6 | 0.48 | 511 | 0.64
COc1cc(N2CCC(N3CCN(C)CC3)CC2)ccc1Nc1ncc(Cl)c(Nc2cccc3c2N(S(C)(=O)=O)CCC3)n1 [Example 10, 5-chloro-N^2-(2-methoxy-4-(4-(4-methylpiperazin-1-yl)piperidin-1-yl)phenyl)-N^4-(1-(methylsulfonyl)-1,2,3,4-tetrahydroquinolin-8-yl)pyrimidine-2,4-diamine] | 143 | 0.39 | 46 | 1.5 | 1870 | 2.6
COc1cc(N2CCC(N3CCN(C)CC3)CC2)ccc1Nc1ncc(Cl)c(Nc2ccc(C)c3c2N(S(C)(=O)=O)CC3)n1 [Example 4, 5-chloro-N^2-(2-methoxy-4-(4-(4-methylpiperazin-1-yl)piperidin-1-yl)phenyl)-N^4-(4-methyl-1-(methylsulfonyl)indolin-7-yl)pyrimidine-2,4-diamine] | 57.2 | 0.17 | 12 | 0.27 | 466 | 0.49
